Key:
Format in all cases: functional
[1] = system: Cydia pomonella; assay: Insecticidal activity against Cydia pomonella (codling moth) assessed as mortality at 4 mg/kg diet topically measured after 10 days of continuous exposure (reference value: 3.3 +/- 3.3%); conditions: topical, 240 h
[2] = system: Cydia pomonella; assay: Insecticidal activity against Cydia pomonella (codling moth) assessed as mortality at 2 mg/kg diet topically measured after 5 days of continuous exposure (reference value: 0%); conditions: topical, 120 h
[3] = system: Cydia pomonella; assay: Insecticidal activity against Cydia pomonella (codling moth) assessed as mortality at 16 mg/kg diet topically measured after 10 days of continuous exposure (reference value: 3.3 +/- 3.3%); conditions: topical, 240 h
[4] = system: Cydia pomonella; assay: Insecticidal activity against Cydia pomonella (codling moth) at 20 mg/kg assessed as growth regulation measured as number of head capsules of larvae after 5 days of continuous exposure (reference value: 0.2 +/- 0.2%)
[5] = system: Cydia pomonella; assay: Insecticidal activity against Cydia pomonella (codling moth) at 1 mg/kg assessed as growth regulation measured as number of head capsules of larvae after 10 days of continuous exposure Rvb = (1.5 +/- 0.2%)
[6] = system: Cydia pomonella; assay: Insecticidal activity against Cydia pomonella (codling moth) assessed as mortality at 8 mg/kg diet topically measured after 10 days of continuous exposure (reference value: 3.3 +/- 3.3%); conditions: topical, 240 h
[7] = system: Cydia pomonella; assay: Antifeedant activity against Cydia pomonella (codling moth) at 6 mg/kg diet topically measured after 5 days of continuous exposure (reference value: 6.7 +/- 6.7%)
[8] = system: Cydia pomonella; assay: Antifeedant activity against Cydia pomonella (codling moth) at 2 mg/kg diet topically measured after 10 days of continuous exposure (reference value: 6.7 +/- 6.7%)
[9] = system: Cydia pomonella; assay: Insecticidal activity against Cydia pomonella (codling moth) at 4 mg/kg assessed as growth regulation measured as number of head capsules of larvae after 5 days of continuous exposure (reference value: 0.2 +/- 0.2%)
[10] = system: Cydia pomonella; assay: Antifeedant activity against Cydia pomonella (codling moth) at 16 mg/kg diet topically measured after 5 days of continuous exposure (reference value: 6.7 +/- 6.7%)
[11] = system: Cydia pomonella; assay: Insecticidal activity against Cydia pomonella (codling moth) at 2 mg/kg assessed as growth regulation measured as number of head capsules of larvae after 5 days of continuous exposure (reference value: 0.2 +/- 0.2%)
[12] = system: Cydia pomonella; assay: Insecticidal activity against Cydia pomonella (codling moth) at 18 mg/kg assessed as growth regulation measured as number of head capsules of larvae after 5 days of continuous exposure (reference value: 0.2 +/- 0.2%)
[13] = system: Cydia pomonella; assay: Insecticidal activity against Cydia pomonella (codling moth) at 4 mg/kg assessed as growth regulation measured as number of head capsules of larvae after 10 days of continuous exposure Rvb = (1.5 +/- 0.2%)
[14] = system: Cydia pomonella; assay: Antifeedant activity against Cydia pomonella (codling moth) at 1 mg/kg diet topically measured after 10 days of continuous exposure (reference value: 6.7 +/- 6.7%)
[15] = system: Cydia pomonella; assay: Insecticidal activity against Cydia pomonella (codling moth) assessed as mortality at 6 mg/kg diet topically measured after 5 days of continuous exposure (reference value: 0%); conditions: topical, 120 h
[16] = system: Cydia pomonella; assay: Antifeedant activity against Cydia pomonella (codling moth) at 16 mg/kg diet topically measured after 10 days of continuous exposure (reference value: 6.7 +/- 6.7%)
[17] = system: Cydia pomonella; assay: Insecticidal activity against Cydia pomonella (codling moth) at 16 mg/kg assessed as growth regulation measured as number of head capsules of larvae after 10 days of continuous exposure Rvb = (1.5 +/- 0.2%)
[18] = system: Cydia pomonella; assay: Insecticidal activity against Cydia pomonella (codling moth) assessed as mortality at 20 mg/kg diet topically measured after 10 days of continuous exposure (reference value: 3.3 +/- 3.3%); conditions: topical, 240 h
[19] = system: Cydia pomonella; assay: Insecticidal activity against Cydia pomonella (codling moth) assessed as mortality at 20 mg/kg diet topically measured after 5 days of continuous exposure (reference value: 0%); conditions: topical, 120 h
[20] = system: Cydia pomonella; assay: Insecticidal activity against Cydia pomonella (codling moth) at 12 mg/kg assessed as growth regulation measured as number of head capsules of larvae after 5 days of continuous exposure (reference value: 0.2 +/- 0.2%)
[21] = system: Cydia pomonella; assay: Insecticidal activity against Cydia pomonella (codling moth) at 16 mg/kg assessed as growth regulation measured as number of head capsules of larvae after 5 days of continuous exposure (reference value: 0.2 +/- 0.2%)
[22] = system: Cydia pomonella; assay: Antifeedant activity against Cydia pomonella (codling moth) at 1 mg/kg diet topically measured after 5 days of continuous exposure (reference value: 6.7 +/- 6.7%)
[23] = system: Cydia pomonella; assay: Insecticidal activity against Cydia pomonella (codling moth) at 6 mg/kg assessed as growth regulation measured as number of head capsules of larvae after 10 days of continuous exposure Rvb = (1.5 +/- 0.2%)
[24] = system: Cydia pomonella; assay: Insecticidal activity against Cydia pomonella (codling moth) at 18 mg/kg assessed as growth regulation measured as number of head capsules of larvae after 10 days of continuous exposure Rvb = (1.5 +/- 0.2%)
[25] = system: Cydia pomonella; assay: Insecticidal activity against Cydia pomonella (codling moth) at 12 mg/kg assessed as growth regulation measured as number of head capsules of larvae after 10 days of continuous exposure Rvb = (1.5 +/- 0.2%)
[26] = system: Cydia pomonella; assay: Antifeedant activity against Cydia pomonella (codling moth) at 20 mg/kg diet topically measured after 10 days of continuous exposure (reference value: 6.7 +/- 6.7%)
[27] = system: Cydia pomonella; assay: Antifeedant activity against Cydia pomonella (codling moth) at 2 mg/kg diet topically measured after 5 days of continuous exposure (reference value: 6.7 +/- 6.7%)
[28] = system: Cydia pomonella; assay: Antifeedant activity against Cydia pomonella (codling moth) at 4 mg/kg diet topically measured after 5 days of continuous exposure (reference value: 6.7 +/- 6.7%)
[29] = system: Cydia pomonella; assay: Antifeedant activity against Cydia pomonella (codling moth) at 18 mg/kg diet topically measured after 5 days of continuous exposure (reference value: 6.7 +/- 6.7%)
[30] = system: Cydia pomonella; assay: Antifeedant activity against Cydia pomonella (codling moth) at 8 mg/kg diet topically measured after 10 days of continuous exposure (reference value: 6.7 +/- 6.7%)
[31] = system: Cydia pomonella; assay: Insecticidal activity against Cydia pomonella (codling moth) at 8 mg/kg assessed as growth regulation measured as number of head capsules of larvae after 10 days of continuous exposure Rvb = (1.5 +/- 0.2%)
[32] = system: Cydia pomonella; assay: Insecticidal activity against Cydia pomonella (codling moth) at 1 mg/kg assessed as growth regulation measured as number of head capsules of larvae after 5 days of continuous exposure (reference value: 0.2 +/- 0.2%)
[33] = system: Cydia pomonella; assay: Insecticidal activity against Cydia pomonella (codling moth) assessed as mortality at 2 mg/kg diet topically measured after 10 days of continuous exposure (reference value: 3.3 +/- 3.3%); conditions: topical, 240 h
[34] = system: Cydia pomonella; assay: Insecticidal activity against Cydia pomonella (codling moth) at 6 mg/kg assessed as growth regulation measured as number of head capsules of larvae after 5 days of continuous exposure (reference value: 0.2 +/- 0.2%)

CC1=C(O)C(=O)C=C2C1=CC=C1[C@@]2(C)CC[C@@]2(C)[C@@H]3C[C@](C)(O)C(=O)C[C@]3(C)CC[C@]12C [20ALPHA-HYDROXYTINGENONE] gave a mortality at 4 mg/kg [1] of 16.7%, a mortality at 2 mg/kg [2] of 0% and a mortality at 16 mg/kg [3] of 93.3%. It also gave an Activity [4] of 0, an Activity [5] of 1.2 and a mortality at 8 mg/kg [6] of 43.3%. For the same compound, the Activity [7] was 83.3%, the Activity [8] was 3.3% and the Activity [9] was 0. For the same compound, the Activity [10] was 100%, the Activity [11] was 0.1 and the Activity [12] was 0. It also gave an Activity [13] of 0.6, an Activity [14] of 6.7% and a mortality at 6 mg/kg [15] of 10%. For the same compound, the Activity [16] was 100%, the Activity [17] was 0 and the mortality at 20 mg/kg [18] was 100%. The mortality at 20 mg/kg [19] was 100%, the Activity [20] was 0 and the Activity [21] was 0. The Activity [22] was 6.7%, the Activity [23] was 0.6 and the Activity [24] was 0. For the same compound, the Activity [25] was 0.3, the Activity [26] was 100% and the Activity [27] was 36.7%. The Activity [28] was 46.7%, the Activity [29] was 100% and the Activity [30] was 80%. It also gave an Activity [31] of 0.2, an Activity [32] of 0.1 and a mortality at 2 mg/kg [33] of 0%. It also gave an Activity [34] of 0.

Reference: ChEMBL document CHEMBL3046339, “Insecticidal activity of Maytenus species (Celastraceae) nortriterpene quinone methides against codling moth, Cydia pomonella (L.) (Lepidoptera: tortricidae)” (2000)
